Results from patent publication US20240132534A1, “OLIGONUCLEOTIDE PRIMER WITH AN ACYCLIC NUCLEOSIDE STRUCTURE FOR INITIAL CAPPING” (JIANGSU SYNTHGENE BIOTECHNOLOGY CO., LTD., priority 2022, published 2024).

How the values were obtained:
T7 RNA polymerase [1] = biological target: T1, T7 RNA polymerase (Escherichia phage T7, UniProt P00573); assay: In vitro transcription yield of mRNA by co-transcriptional capping; format: biochemical; conditions: for Increased yield relative to Comparative Example 1: mRNA IVT yield vs 50 μg of Comparative Example 1; for Yield: mRNA from 20 μl IVT, 1 μg template, 37° C. 2 h, Nanodrop One
Procedure: (§1) Test Example 1: Determination of in vitro transcription yield and capping efficiency of mRNA
(§2) In vitro synthesis of mRNA was performed using the oligonucleotide primer with an acyclic nucleoside structure for initial capping by the co-transcriptional capping method. First, the plasmid was digested with NotI overnight at […]. DNA template was extracted to synthesize mRNA by in vitro transcription. The oligonucleotide primers with an acyclic nucleoside structure for initial capping in Examples 1-4, 6, 7, and 11 and the capping analogs in Comparative Examples 1-2 were used as cap structures respectively.
Note: During the experiment, the volume of materials required for the system was first calculated, and then the sample was added. The system was firstly added with sterile enzyme-free water, then added with 10X buffer, NTPs, and cap structure subsequently, mixed, centrifuged gently, then added with nuclease inhibitor, inorganic pyrophosphatase, T7 RNA polymerase, and linearized DNA template, mixed thoroughly, centrifuged gently, and incubated at 37° C. After 2 h, the system was added with 1U of DNase I and incubated at 37° C. for another 30 min to remove the DNA template. Then RNA was purified, usually by the magnetic bead purification method. The purified mRNA was dissolved in sterile enzyme-free water, and then quantitatively measured using Nanodrop One.

T7 RNA polymerase [2] = biological target: T1, T7 RNA polymerase; assay: IVT capping rate of mRNA by LC-MS; format: biochemical; conditions: for Capping rate: LC-MS after RNase H cleavage; for Increased capping rate relative to Comparative Example 1: vs capping rate 93.5% of Comparative Example 1
Procedure: as §1, §2
Liquid chromatography mass spectrometry (LC-MS) was used to determine the IVT capping rate of mRNA with different initial cap analogs. First, it is necessary to design a labeled DNA probe that matches the starting base of the transcript product mRNA, and usually the label is biotin. The streptavidin-labeled magnetic beads were washed, and incubated with the synthesized DNA probe, mRNA and 10×RNase H reaction buffer at room temperature for 30 min. The mixture was mixed slowly while incubating, then added with 20 μl of RNase. H (5U/μl), incubated at 37° C. for 3 h, and mixed thoroughly every half hour. After the incubation was completed, the magnetic beads were washed and added with 100 μL of 75% methanol heated to 80° C. The mixture was heated to 80° C. on a hot plate and kept for 3 min, and then placed on a magnetic stand. The supernatant was collected and dried at room temperature for 45 min to 10 μl using an evaporative centrifuge. The sample was then resuspended in 50 μl of 100 μM EDTA/1% MeOH, which was ready for LC-MS analysis to determine RNA capping during the transcription reaction. Since there was a significant difference in molecular weight between capped and uncapped bases, the capping rate of mRNA transcription initiated by different cap analogs can be determined through the difference in molecular mass.

RIG-I = biological target: T2, RIG-I (Homo sapiens, UniProt O95786); assay: Binding ability of mRNA to RIG-I (RNA co-immunoprecipitation, RT-qPCR) in transfected 293T cells; format: cell-based; conditions: eGFP mRNA made with the cap analog, 24 h after transfection
T2 construct: endogenous in cells; host or cells: 293T cells
T2 sequence (O95786 1-925): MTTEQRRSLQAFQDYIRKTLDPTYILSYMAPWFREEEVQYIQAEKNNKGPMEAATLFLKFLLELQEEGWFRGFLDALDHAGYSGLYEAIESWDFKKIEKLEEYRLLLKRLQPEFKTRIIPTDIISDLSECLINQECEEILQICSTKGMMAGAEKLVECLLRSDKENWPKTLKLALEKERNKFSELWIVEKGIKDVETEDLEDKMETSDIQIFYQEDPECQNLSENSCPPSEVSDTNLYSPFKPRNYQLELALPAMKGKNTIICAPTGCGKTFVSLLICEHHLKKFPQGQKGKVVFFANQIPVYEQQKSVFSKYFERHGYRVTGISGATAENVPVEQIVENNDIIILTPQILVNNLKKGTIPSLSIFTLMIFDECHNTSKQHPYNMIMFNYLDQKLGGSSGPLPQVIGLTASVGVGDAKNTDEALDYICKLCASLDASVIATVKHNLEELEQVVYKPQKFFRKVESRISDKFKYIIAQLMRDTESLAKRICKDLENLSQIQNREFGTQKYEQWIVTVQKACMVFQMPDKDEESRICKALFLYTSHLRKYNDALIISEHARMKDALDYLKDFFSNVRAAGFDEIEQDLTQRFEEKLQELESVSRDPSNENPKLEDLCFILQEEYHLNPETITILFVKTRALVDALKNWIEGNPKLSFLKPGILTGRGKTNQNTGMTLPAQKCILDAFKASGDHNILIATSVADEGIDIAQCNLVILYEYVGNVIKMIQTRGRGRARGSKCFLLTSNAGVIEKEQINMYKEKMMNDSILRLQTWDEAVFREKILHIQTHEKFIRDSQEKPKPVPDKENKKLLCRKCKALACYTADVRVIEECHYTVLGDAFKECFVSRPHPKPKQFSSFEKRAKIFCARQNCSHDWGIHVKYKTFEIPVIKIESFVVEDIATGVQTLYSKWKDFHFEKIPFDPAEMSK
Text: Test Example 2: Determination of the binding ability of mRNA to RIG I
RIG-I mainly includes two repeated caspase activation and recruitment domains (CARD) at the N-terminus, a helicase structure in the middle and a RNA domain at the C-terminus. The overexpression of the N-terminal CARD domain of RIG-I can promote cells to secrete type I interferon (IFN) even in the absence of viral infection. Therefore, this domain is mainly responsible for transmitting signals downstream. RIG-I can recognize exogenous RNA, mediate the production of cytokines and chemokines, and recruit innate immune cells to trigger immune responses. mRNA with high immunogenicity is easily recognized and combined by RIG. Thus, mRNA with strong binding ability to RIG-1 has high immunogenicity.
In this study, 293T cells were transfected with the eGFP mRNAs prepared by in vitro transcription initiated by the oligonucleotide primers with an acyclic nucleoside structure for initial capping in Examples 1-4, 6, 7, and 11 and the cap analogs in Comparative Examples 1-2, and collected 24 hours later. The intracellular protein RIG I and RNA bound thereto were co-immunoprecipitated by the RNA co-immunoprecipitation method. Finally, reverse transcription and real-time quantitative PCR were performed on these mRNAs.
The specific cell culture conditions were the same as above. Cells were collected 24 hours after transfection. First, a fixing solution was added for incubation. After 10 min, glycine solution of an appropriate concentration was added to terminate the reaction, and cells were collected. The collected cells were lysed using the lysis solution, centrifuged at 12,000 rpm and 4° C. for 10 min. The supernatant was collected and incubated with an appropriate amount of RIG-I or IgG antibody on a shaker at 4° C. overnight. Then 20 μl of Protein A/G magnetic beads were added, incubated at 4° C. for 4 h, and washed on a magnetic stand. After washing was completed, RNA was extracted and used for subsequent RT-qPCR to determine the expression results.

T7 transcription = T7 transcription (Escherichia phage T7, UniProt P00573); conditions: cited from earlier work
Chain of T7 transcription (P00573 whole entry): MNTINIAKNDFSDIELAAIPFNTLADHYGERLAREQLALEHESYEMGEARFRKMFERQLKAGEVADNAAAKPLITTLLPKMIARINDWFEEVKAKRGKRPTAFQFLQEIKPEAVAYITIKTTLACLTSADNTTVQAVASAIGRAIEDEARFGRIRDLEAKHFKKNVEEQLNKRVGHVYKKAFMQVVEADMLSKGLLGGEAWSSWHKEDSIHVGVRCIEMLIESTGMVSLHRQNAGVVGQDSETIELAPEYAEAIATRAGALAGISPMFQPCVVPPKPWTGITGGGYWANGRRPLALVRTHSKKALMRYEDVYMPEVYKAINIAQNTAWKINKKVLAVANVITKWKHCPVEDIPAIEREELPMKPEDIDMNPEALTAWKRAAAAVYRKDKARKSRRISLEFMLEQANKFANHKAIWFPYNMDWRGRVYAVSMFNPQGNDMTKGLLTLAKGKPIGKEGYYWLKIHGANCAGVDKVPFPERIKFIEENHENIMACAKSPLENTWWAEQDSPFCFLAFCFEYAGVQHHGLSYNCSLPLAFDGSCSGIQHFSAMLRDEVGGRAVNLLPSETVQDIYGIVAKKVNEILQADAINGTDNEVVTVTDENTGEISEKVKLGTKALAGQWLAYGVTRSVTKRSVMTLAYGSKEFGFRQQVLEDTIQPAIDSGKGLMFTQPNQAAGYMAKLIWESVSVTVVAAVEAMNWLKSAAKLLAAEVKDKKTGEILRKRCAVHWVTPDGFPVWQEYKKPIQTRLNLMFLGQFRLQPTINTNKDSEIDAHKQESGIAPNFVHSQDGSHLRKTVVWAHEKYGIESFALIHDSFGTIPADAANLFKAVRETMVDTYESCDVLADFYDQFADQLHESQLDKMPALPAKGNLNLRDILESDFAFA

T1 sequence (P00573 whole entry): as above

## CO[C@H]1C(OP(=O)(O)OC[C@H]2O[C@@H](n3cnc4c(=O)[nH]c(N)nc43)[C@@H](O)C2O)[C@@H](COP(=O)(O)OP(=O)([O-])OP(=O)(O)OC[C@H](CO)O[C@H](CO)n2c[n+](C)c3c(=O)[nH]c(N)nc32)O[C@H]1n1cnc2c(N)ncnc21 (some centres unmarked) [Example 1]
T7 RNA polymerase [1]
  Increased yield relative to Comparative Example 1: 44%
  Yield: 72 µg
T7 RNA polymerase [2]
  Capping rate: 99.3%
  Increased capping rate relative to Comparative Example 1: 5.8%

## C[n+]1cn([C@@H](CO)O[C@@H](CO)COP(=O)([O-])OP(=O)(O)OP(=O)(O)OC[C@]23COC(C2OP(=O)(O)OC[C@H]2O[C@@H](n4cnc5c(=O)[nH]c(N)nc54)C(O)C2O)[C@H](n2cnc4c(N)ncnc42)O3)c2nc(N)[nH]c(=O)c21 (some centres unmarked) [Example 7]
T7 RNA polymerase [1]
  Increased yield relative to Comparative Example 1: 36%
  Yield: 68 µg
RIG-I
  Relative binding ability to RIG-I: 2.1 ± 0.21
T7 RNA polymerase [2]
  Capping rate: 97.6%
  Increased capping rate relative to Comparative Example 1: 4.1%

## COC[C@@H](COP(=O)(O)OP(=O)([O-])OP(=O)(O)OC[C@H]1O[C@@H](n2cnc3c(N)ncnc32)C(OC)C1OP(=O)(O)OC[C@H]1O[C@@H](n2cnc3c(=O)[nH]c(N)nc32)C(O)C1O)O[C@H](CO)n1c[n+](C)c2c(=O)[nH]c(N)nc21 (stereo in doubt) [Example 11]
T7 RNA polymerase [1]
  Increased yield relative to Comparative Example 1: 42%
  Yield: 71 µg
RIG-I
  Relative binding ability to RIG-I: 1.5±0.25
T7 RNA polymerase [2]
  Capping rate: 96.8%
  Increased capping rate relative to Comparative Example 1: 3.3%

## COCCOC1C(OP(=O)(O)OC[C@H]2O[C@@H](n3cnc4c(=O)[nH]c(N)nc43)C(O)C2O)[C@@H](COP(=O)(O)OP(=O)(O)OP(=O)([O-])OC[C@H](CO)O[C@H](CO)n2c[n+](C)c3c(=O)[nH]c(N)nc32)O[C@H]1n1cnc2c(N)ncnc21 (some centres unmarked) [Example 6]
T7 RNA polymerase [1]
  Yield: 44 µg
RIG-I
  Relative binding ability to RIG-I: 1.4±0.32
T7 RNA polymerase [2]
  Capping rate: 95.2%

## COC1C(OP(=O)(O)OC[C@H](CO)O[C@H](CO)n2cnc3c(=O)[nH]c(N)nc32)[C@@H](COP(=O)(O)OP(=O)(O)OP(=O)([O-])OC[C@H]2O[C@@H](n3c[n+](C)c4c(=O)[nH]c(N)nc43)C(O)C2O)O[C@H]1n1cnc2c(N)ncnc21 (some centres unmarked) [Comparative Example 2, reference compound]
T7 RNA polymerase [1]
  Yield: 41 µg
RIG-I
  Relative binding ability to RIG-I: 4.0 ± 0.31
T7 RNA polymerase [2]
  Capping rate: 90.1%

## COC[C@@H](O[C@@H](COP(=O)(O)OC[C@H](CO)O[C@H](CO)n1cnc2c(=O)[nH]c(N)nc21)COP(=O)(O)OP(=O)([O-])OP(=O)(O)OC[C@H](CO)O[C@H](CO)n1c[n+](C)c2c(=O)[nH]c(N)nc21)n1cnc2c(N)ncnc21 [Example 4]
T7 RNA polymerase [1]
  Yield: 45 µg
RIG-I
  Relative binding ability to RIG-I: 2.8 ± 0.62
T7 RNA polymerase [2]
  Capping rate: 93.3%

## COC1C(OP(=O)(O)OC[C@H]2O[C@@H](n3cnc4c(=O)[nH]c(N)nc43)C(O)C2O)[C@@H](COP(=O)(O)OP(=O)(O)OP(=O)([O-])OC[C@H]2O[C@@H](n3c[n+](C)c4c(=O)[nH]c(N)nc43)C(O)C2O)O[C@H]1n1cnc2c(N)ncnc21 (stereo in doubt) [Comparative Example 1, ^m7GpppA2′OMepG, reference compound]
T7 RNA polymerase [1]
  Yield: 50 µg
RIG-I
  Relative binding ability to RIG-I: 3.1±0.51
T7 transcription; per milliliter of transcription reaction
  Capped RNA prepared per milliliter of transcription reaction system: 4 mg
T7 transcription; vs ARCA
  Immunogenicity of transcription products: lower than that of ARCA
T7 RNA polymerase [2]
  Capping rate: 93.5%

## CO[C@H]1C(OP(=O)(O)OC[C@H](CO)O[C@H](CO)n2cnc3c(=O)[nH]c(N)nc32)[C@@H](COP(=O)(O)OP(=O)([O-])OP(=O)(O)OC[C@H](CO)O[C@H](CO)n2c[n+](C)c3c(=O)[nH]c(N)nc32)O[C@H]1n1cnc2c(N)ncnc21 (some centres unmarked) [Example 2]
T7 RNA polymerase [1]
  Yield: 58 µg
RIG-I
  Relative binding ability to RIG-I: 2.4 ± 0.34
T7 RNA polymerase [2]
  Capping rate: 96.5%
  Increased capping rate relative to Comparative Example 1: 3%
